Assay: gradient 5% acetonitrile 3 min, to 50% in 2 min, to 85% in 15 min, held 3 min, 100 µL/min
Details: column: Zorbax Extend-C18 2.1 x 50 mm; eluents: water / acetonitrile, 0.1% formic acid
How it was run: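 Retention times come from adduct peaks that were picked computationally and then checked by hand. The standards, pure and pooled in mixtures of ~100 molecules, were run on a Zorbax Extend-C18 column (2.1 × 50 mm, 1.8 μm) at 100 μL/min with water and acetonitrile, each with 0.1% formic acid. Detection was by quadrupole time-of-flight mass spectrometry in positive and negative ionization mode, with a dead volume of 40 μL and a dwell volume of 900 μL.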

| RP-LC retention time | SMILES |
| --- | --- |
| 677 s | Cc1cc2nc(N3CCOCC3)n(CC(=O)Nc3cc(F)cc(F)c3)c(=O)c2n1C |
| 812 s | CCOC(=O)C1CC(=O)c2cc(OC)c(OC)cc2C1 (stereo not drawn) |
| 806 s | O=C(Cn1cc(S(=O)(=O)Cc2ccccc2F)c2ccccc21)NCC1CCCO1 (stereo not drawn) |
| 847 s | O=C(NC1CCCCC1)C1CCN(Cc2cc3ccccc3n2Cc2cccc(Cl)c2)CC1 |
| 593 s | COCCC(=O)N1CCC2(CCC2O)CC1 (stereo not drawn) |
| 602 s | COCc1ncc(C)n1C1CCN(C(=O)c2ccc(Cc3c(C)noc3C)o2)C1 (stereo not drawn) |
| 1250 s | Cc1ccc(C)c(N2CCN(C(=O)C3CCCCN3S(=O)(=O)c3ccc(F)cc3)CC2)c1 (stereo not drawn) |
| 876 s | Cc1cc2c(cc1S(=O)(=O)N1CCCC1)N(C(=O)C1CC1)CC2 |
| 812 s | Cc1ccc(N2CCC(NC(=O)c3ccc(Br)o3)C2=O)cc1 (stereo not drawn) |
| 544 s | COc1cc(CN(C)C2CCc3nnc(C4CCOCC4)n3CC2)cc(OC)c1 (stereo not drawn) |
| 604 s | O=C(CCc1nnn2c1CN(C(=O)c1ccccc1)CC2)NC1CC1 |
| 765 s | CCOC(=O)Cn1nc2ccc(S(=O)(=O)N3CCSCC3)cn2c1=O |
| 588 s | CC(=O)N1CCC(c2nc(C)c(C(=O)O)s2)CC1 |
| 815 s | CC(=O)Nc1ccc(C)cc1S(=O)(=O)N1CCc2c(c(-c3nnc(-c4ccccc4)o3)nn2C)C1 |
| 677 s | COc1cccc(N2CCN(CC(O)c3ccc(C)cc3)CC2)c1 (stereo not drawn) |
| 580 s | Cc1ccccc1N1C(=O)CC(N2CCC(C(N)=O)CC2)C1=O (stereo not drawn) |
| 643 s | CCOC(=O)N1CCN(C(=O)Cn2c(-c3ccccn3)nc3ccccc32)CC1 |
| 723 s | CC1=C(C(=O)N2CCOCC2)C(c2ccc(Br)cc2)C2=C(CC(C)(C)CC2=O)N1 (stereo not drawn) |
| 719 s | COc1ccc(N2CCN(S(=O)(=O)c3cn(C)nc3C)CC2)cc1 |
| 664 s | O=C1CCN(C(=O)C2CCN(C(=O)NC3CCCCC3)CC2)CCCCCCN1 |
| 818 s | CC(NC(=O)c1ccc(C#N)cc1)C(=O)N1CCCc2ccccc21 (stereo not drawn) |
| 661 s | CCN(C(=O)Cn1c(N2CCCCC2)nc(C)cc1=O)c1ccccc1 |
| 735 s | Cc1cc(NC(=O)C(C)n2nc(-c3ccc(F)cc3)ccc2=O)on1 (stereo not drawn) |
| 792 s | Cc1ccc(NC(=O)N2CCC(OC3CCN(S(C)(=O)=O)CC3)CC2)cc1F |
| 553 s | COc1ccc(Cl)cc1C(=O)N1CCCN(C2CCN(CC3CC3)C2=O)CC1 (stereo not drawn) |
| 597 s | CCC1CCCCN1CCNC(=O)Cn1c(=O)n(-c2ccccc2)c2ncccc21 (stereo not drawn) |

| RP-LC retention time | SMILES |
| --- | --- |
| 652 s | COc1ccc(-c2cc(N3CCN(C(=O)Nc4ccc5c(c4)OCCO5)CC3)ncn2)cc1 |
| 601 s | Cc1noc([C@@H]2CN(C(=O)c3ccsc3)C[C@H]2C(N)=O)n1 |
| 1010 s | CCc1ccccc1NC(=O)CSc1cc(N2CCN(c3ccc(OC)cc3)CC2)ncn1 |
| 803 s | CC1=C(c2ccccc2)S(=O)(=O)N=C1N1CCCN(C(=O)C(C)(C)C)CC1 |
| 585 s | CCCCN1CCN(C(=O)C2c3ccccc3CCN2C(C)=O)CC1 (stereo not drawn) |
| 589 s | COCC(=O)NC1CCC12CCN(C(C)=O)CC2 (stereo not drawn) |
| 772 s | COc1ccc(Cl)cc1S(=O)(=O)NCC1CCN(c2ncccn2)CC1 |
| 742 s | Nc1cc(C2CCN(S(=O)(=O)Cc3cccc(F)c3)CC2)no1 |
| 712 s | COc1ccc(C(=O)NC2CCN(c3cc(-c4cccs4)[nH]n3)C2)c(C)c1 (stereo not drawn) |
| 965 s | Cc1ccc(CNC(=O)C2(C)CCN(S(=O)(=O)c3ccc(F)cc3)CC2)cc1 |
| 660 s | Cc1ccc(C)c(S(=O)(=O)Nc2ccc(N3CCN(c4ccccn4)CC3)c(C(=O)O)c2)c1 |
| 768 s | CC(C)NC(=O)c1nn(-c2ccccc2F)nc1CO |
| 621 s | Cc1ncoc1C(=O)N1CCCCCNC(=O)[C@@H]2CCC[C@@H]21 |
| 558 s | O=C(NC1CCc2nnc(C3CC3)n2CC1)c1ccc(Cn2cncn2)o1 (stereo not drawn) |
| 605 s | CC(C)CC(=O)Nc1n[nH]c2c1CN(C(=O)C1CCN(C)CC1)C2(C)C |
| 814 s | CC1=C(c2ccc(F)cc2)S(=O)(=O)N=C1N1CCCN(C(=O)C(C)(C)C)CC1 |
| 759 s | CCOc1ccccc1CNC(=O)C1CCN(Cc2cn(CC)c3ccc(OC)cc23)CC1 |
| 570 s | CCc1cc(C2CCCN2Cc2ccc(OCC(N)=O)c(OC)c2)on1 (stereo not drawn) |
| 646 s | CCOc1ccc(C(=O)N2CCCCC2c2nncn2C)cc1OCC (stereo not drawn) |
| 567 s | COCCN1CCC(N2CCN(S(=O)(=O)c3ccccc3Cl)CC2)C1=O (stereo not drawn) |
| 829 s | CCS(=O)(=O)NCc1ccc2c(c1)CCN2C(=O)c1ccc(Cl)cc1 |
| 668 s | Cc1ccccc1N1CCN(C(=O)c2cn3c(n2)CCCC3)CC1 |
| 711 s | COc1ccc(CC(=O)N2CCC3(CC2)NC(=O)c2ccccc2N3C)cc1OC |
| 909 s | CCCCCC(=O)N1CCCCC1 |
| 714 s | COc1ccc(S(=O)(=O)N2CCCC(c3nn[nH]n3)C2)cc1 (stereo not drawn) |

The next lines start with the molecule.

| SMILES | RP-LC retention time |
| --- | --- |
| CC(C)(C)c1ccc(-c2nc(N3CCCC3)c3ccccc3n2)cc1 | 906 s |
| COc1ccc(CNC(=O)c2cc3sc(Cl)cc3n2C)cc1 | 1030 s |
| Cn1c(N2CCN(S(=O)(=O)c3ccc(Cl)s3)CC2)nc2ccccc21 | 614 s |
| CCOC(=O)c1ccc(Nc2ncccc2S(N)(=O)=O)cc1 | 841 s |
| O=C(O)c1cc(-c2cccs2)[nH]c(=O)n1 | 551 s |
| CN(C)CCn1nnc2cc(-c3noc(-c4cccc(F)c4)n3)ccc21 | 676 s |
| CC(C)Cn1cc(CCNS(=O)(=O)Cc2cccc(Cl)c2)c2cccnc21 | 969 s |
| Cc1nc(NC(=O)c2ccc(F)cc2)nc2cc3c(cc12)OCO3 | 705 s |
| CCCn1c(=O)c(C)nc2cc(-c3noc(/C=C/c4ccc(OC)cc4)n3)ccc21 | 1210 s |
| CCc1nc2ccccc2c(=O)n1Cc1noc(-c2ccc(OC)cc2OC)n1 | 918 s |
| Cc1ccc2ccc(C#N)cc2c1O | 892 s |
| Cc1ccc(C(=O)NCc2[nH]nc3ccccc23)cc1C | 788 s |
| Cc1nccn1Cc1noc(-c2ccccc2)n1 | 600 s |
| CCOc1ccc(CN(CCOC)Cc2cc(=O)n3cc(Cl)ccc3n2)cc1 | 677 s |
| Cc1sc(NC(=O)c2ccccc2)nc1-c1ccc2c(c1)NC(=O)CO2 | 857 s |
| O=S(=O)(Nc1ccc2c(c1)OCO2)c1ccc2nncn2c1 | 648 s |
| O=c1c(=O)n(-c2cccc(Cl)c2)ccn1Cc1nc(-c2ccccc2)no1 | 875 s |
| Cc1noc(C)c1S(=O)(=O)N1CCc2c(c(-c3nnc(-c4ccc(F)cc4)o3)nn2C)C1 | 910 s |
| O=C(Nc1ccc(OCc2nnc(-c3ccc(Cl)cc3)o2)cc1)c1ccoc1 | 942 s |
| CC(C)CC(=O)Nc1nc(-c2ccc3ccccc3c2)cs1 | 1140 s |
| O=C1[C@H]2CN(Cc3ccc(F)c(Cl)c3)C[C@H]2C(=O)N1Cc1ccc2c(c1)OCO2 | 853 s |

| SMILES | RP-LC retention time |
| --- | --- |
| O=C(Cc1csc(Nc2ccccc2)n1)NCCC1=CCCCC1 | 865 s |
| CCOc1ccc2nc(NC(=O)COc3nccc(C)n3)sc2c1 | 744 s |
| CCCC(NC(=O)c1cccc(Cl)c1)C(=O)Nc1nc2ccccc2[nH]1 (stereo not drawn) | 742 s |
| O=C(NCCn1nc(-n2ccnc2)ccc1=O)c1cc(-c2ccccc2)on1 | 572 s |
| O=C1CC(c2ccco2)Cc2[nH]c(=O)c(C(=O)Nc3ccccc3C(F)(F)F)cc21 (stereo not drawn) | 746 s |
| Cc1ccc(OCc2nc(-c3cccc(-c4ccnn4C)c3)no2)cc1 | 1130 s |
| COc1ccc(-c2noc(CN3N=NC4C(=O)N(c5ccc(C)c(F)c5)C(=O)C43)n2)c(OC)c1 (stereo not drawn) | 844 s |
| Cc1nnsc1C(=O)OCc1cc(-c2ccco2)on1 | 850 s |
| Cc1ccc(CNc2c(-c3ccc(C(C)C)cc3)nc3ncccn23)cc1 | 907 s |
| CCS(=O)(=O)N1CC(F)(F)C[C@H]1c1nc(-c2cccnc2)no1 | 743 s |
| Cc1nn(-c2ccc(Cl)nn2)c2c1CCC2 | 946 s |
| O=C(Nc1ccccc1Br)N1CCc2nc(-c3ccc(F)cc3)ncc2C1 | 1020 s |
| COc1c(Sc2ccc([N+](=O)[O-])cc2)c(C)nn1-c1ccccc1 | 1130 s |
| Cc1cccc(S(=O)(=O)Nc2cc(-c3cn4cccc(C)c4n3)ccc2C)c1 | 695 s |
| Fc1cccc(-c2nc3ncccn3c2NCc2ccc(Cl)cc2)c1 | 834 s |
| CC(C)CN1C(=O)CCc2cc(NS(=O)(=O)c3ccccc3F)ccc21 | 845 s |
| Cc1ccccc1Nc1c(-c2cccc(Cl)c2)nc2ncccn12 | 901 s |
| COc1cccc(C(=O)Nc2c(-c3ccccc3)nc3ccccn23)c1OC | 666 s |
| COc1ccc(-c2nc(-c3ccc4oc(C)nc4c3)no2)c(C)c1 | 1170 s |
| Cc1cc(NC(=O)Cn2nc(N(C)C)c3ccccc3c2=O)ccc1Br | 995 s |
| COc1ccc(Cl)cc1N1C=C(C#N)S(=O)(=O)c2ccc(F)cc21 | 968 s |
